Measured values taken from PubChem BioAssay AID276 (DTP/NCI, 2004).
Where “and” joins values, the source holds several entries; their conditions need not be identical. Equal values may be shown once. Toxic doses and inconclusive results are not listed. The calls were made as follows: active = survival T/C of 150% or more; inactive = T/C below 125% in these data.

Tested on: B6C3F1 mice, Lewis lung carcinoma iv, survival T/C
Test: NCI In Vivo Anticancer Drug Screen. Data for tumor model Lewis Lung Carcinoma (intravenous) in B6C3F1 mice
Details: endpoint: median survival time, schedule: Q01DX009 (ip), higher = longer survival
Protocol: The antitumor activity of compounds was measured in mice bearing transplantable tumors. Survival or tumor size were measured and the results are expressed as the measurement made in the treated group (T) divided by the measurement made in the vehicle treated control group (C). The tumor model used in this assay is Lewis Lung Carcinoma (intravenous) in B6C3F1 mice

[1] = dose: 3.12 mg/kg/injection, vehicle: saline
[2] = dose: 6.25 mg/kg/injection, vehicle: saline
[3] = dose: 12.5 mg/kg/injection, vehicle: saline
[4] = dose: 25.0 mg/kg/injection, vehicle: saline
[5] = dose: 50.0 mg/kg/injection, vehicle: saline
[6] = dose: 100.0 mg/kg/injection, vehicle: saline
[7] = dose: 12.5 mg/kg/injection, vehicle: suspension in saline
[8] = dose: 25.0 mg/kg/injection, vehicle: suspension in saline
[9] = dose: 50.0 mg/kg/injection, vehicle: suspension in saline
[10] = dose: 100.0 mg/kg/injection, vehicle: suspension in saline
[11] = dose: 200.0 mg/kg/injection, vehicle: suspension in saline
[12] = dose: 400.0 mg/kg/injection, vehicle: suspension in saline
[13] = dose: 12.5 mg/kg/injection, vehicle: saline with Tween-80
[14] = dose: 25.0 mg/kg/injection, vehicle: saline with Tween-80
[15] = dose: 50.0 mg/kg/injection, vehicle: saline with Tween-80
[16] = dose: 100.0 mg/kg/injection, vehicle: saline with Tween-80
[17] = dose: 200.0 mg/kg/injection, vehicle: saline with Tween-80
[18] = dose: 1.0 mg/kg/injection, vehicle: saline
[19] = dose: 2.0 mg/kg/injection, vehicle: saline
[20] = dose: 4.0 mg/kg/injection, vehicle: saline

Measured: T/C

CCCCCCCC(=O)N/N=C(\CO)[C@]1(O)Cc2c(O)c3c(c(O)c2[C@@H](OC2CC(N)C(O)C(C)O2)C1)C(=O)c1c(OC)cccc1C3=O (some centres undefined)
inactive: dose: 1.5 mg/kg/injection, vehicle: saline 100 % of control | dose: 1.5 mg/kg/injection, vehicle: water 108 % of control | dose: 3.0 mg/kg/injection, vehicle: saline 102 % of control | dose: 3.0 mg/kg/injection, vehicle: water 104 % of control | dose: 6.0 mg/kg/injection, vehicle: saline 105 % of control | dose: 6.0 mg/kg/injection, vehicle: water 99 % of control | dose: 12.0 mg/kg/injection, vehicle: saline 112 % of control | dose: 12.0 mg/kg/injection, vehicle: water 92 % of control | dose: 24.0 mg/kg/injection, vehicle: saline 87 % of control

O=C(O)C1CSCN1 (centres undefined)
inactive: [1] 99 % of control | [2] 108 % of control | [3] 100 % of control | [4] 101 % of control | [5] 101 % of control | [6] 106 % of control

O=c1n(CC2CO2)c(=O)n(CC2CO2)n1CC1CO1 (centres undefined)
inactive: [2] 100 % of control | [3] 108 % of control | [4] 108 % of control

CN(CCN(C)C(=O)CCOS(C)(=O)=O)C(=O)CCOS(C)(=O)=O
inactive: [7] 101 % of control | [8] 97 % of control | [9] 102 % of control | [10] 107 % of control

COC(=O)NC1C(C)OC(OC2C/C=C(/C)C3C=CC4C(OC5CC(OC6CCC(OC7CC(O)C(OC8CCC(O)C(C)O8)C(C)O7)C(C)O6)C(OC(C)=O)C(C)O5)C(C)CC(C)C4C3(C)/C(O)=C3/C(=O)OC4(CC(C=O)=CC(O)C4/C=C\2C)C3=O)CC1(C)[N+](=O)[O-] (centres undefined)
inactive: dose: 1.25 mg/kg/injection, vehicle: water 108 % of control | dose: 2.5 mg/kg/injection, vehicle: water 97 % of control | dose: 5.0 mg/kg/injection, vehicle: water 98 % of control

CS(=O)(=O)Nc1ccc(C(=O)CCN2CCCCCC2)cc1
inactive: [8] 95 % of control | [9] 100 % of control | [10] 105 % of control | [11] 100 % of control | [12] 102 % of control

CCN(CC)CCNc1ccc(C)c2sc3ccc(O)cc3c(=O)c12
inactive: [13] 95 % of control | [14] 105 % of control | [15] 102 % of control

O=NN(CCCl)C(=O)Oc1ccc(OC(=O)N(CCCl)N=O)cc1
inactive: dose: 0.5 mg/kg/injection, vehicle: Klucel (hydroxypropylcellulose) (HPC) 95 % of control | dose: 1.0 mg/kg/injection, vehicle: Klucel (hydroxypropylcellulose) (HPC) 96 % of control | dose: 2.0 mg/kg/injection, vehicle: Klucel (hydroxypropylcellulose) (HPC) 105 % of control | dose: 3.12 mg/kg/injection, vehicle: Klucel (hydroxypropylcellulose) (HPC) 97 % of control | dose: 4.0 mg/kg/injection, vehicle: Klucel (hydroxypropylcellulose) (HPC) 111 % of control

C=COC(=O)C(Cc1ccccc1)NC(=O)OCc1ccccc1 (centres undefined)
inactive: [14] 103 % of control | [15] 112 % of control | [16] 98 % of control | [17] 105 % of control | dose: 400.0 mg/kg/injection, vehicle: saline with Tween-80 94 % of control

O=C1C(NCC(O)CO)=C(N2CC2)C(=O)C(NCC(O)CO)=C1N1CC1 (centres undefined)
inactive: dose: 0.5 mg/kg/injection, vehicle: saline 100 % of control | [18] 98 % of control | [19] 108 % of control | [20] 116 % of control

CCCCCCCC(=O)OCC(=O)[C@]1(O)Cc2c(O)c3c(c(O)c2[C@@H](OC2CC(N)C(O)C(C)O2)C1)C(=O)c1c(OC)cccc1C3=O (some centres undefined)
inactive: [18] 102 % of control | dose: 1.0 mg/kg/injection, vehicle: suspension in saline 120 % of control | [19] 124 % of control | dose: 2.0 mg/kg/injection, vehicle: suspension in saline 112 % of control

CC[As](=O)(O)CC
inactive: [5] 95 % of control | [6] 103 % of control | dose: 200.0 mg/kg/injection, vehicle: saline 103 % of control

Cc1oc2c(C)c3oc(=O)cc(C)c3cc2c1CCl
inactive: [13] 103 % of control | [14] 101 % of control

O=C(O)CSc1c(Cl)c(=O)oc2ccc(Cl)cc12
inactive: dose: 6.25 mg/kg/injection, vehicle: Klucel (hydroxypropylcellulose) (HPC) 93 % of control | dose: 12.5 mg/kg/injection, vehicle: Klucel (hydroxypropylcellulose) (HPC) 93 % of control | dose: 25.0 mg/kg/injection, vehicle: Klucel (hydroxypropylcellulose) (HPC) 94 % of control | dose: 50.0 mg/kg/injection, vehicle: Klucel (hydroxypropylcellulose) (HPC) 98 % of control | dose: 100.0 mg/kg/injection, vehicle: Klucel (hydroxypropylcellulose) (HPC) 98 % of control

COc1cc2c[n+](C)c3c(c2cc1OC)Cc1cc2c(cc1-3)OCO2
inactive: [7] 97 % of control | [8] 114 % of control | [9] 119 % of control

O=[N+]([O-])c1ccc(-n2[nH]nnc2=S)cc1
inactive: [13] 101 % of control | [14] 96 % of control | [15] 103 % of control | [16] 95 % of control | [17] 94 % of control

CN(C)c1nc(N(C)C)nc(N(C)C)n1
inactive: [14] 101 % of control | [15] 114 % of control | [16] 109 % of control | [17] 111 % of control

c1cc(OCC2CO2)ccc1OCC1CO1 (centres undefined)
inactive: [13] 96 % of control | [14] 94 % of control | [15] 100 % of control | [16] 96 % of control

CC1=C(C)C(=O)O[C@@H]([C@](C)(O)[C@]2(O)CC[C@@]3(O)[C@@H]4C[C@H]5O[C@]56[C@@H](O)C=CC(=O)[C@]6(C)[C@H]4CC[C@]23C)C1
inactive: [18] 97 % of control | [19] 100 % of control and 101 % of control | [20] 101 % of control and 104 % of control | dose: 8.0 mg/kg/injection, vehicle: saline 94 % of control and 101 % of control | dose: 16.0 mg/kg/injection, vehicle: saline 94 % of control | dose: 32.0 mg/kg/injection, vehicle: saline 92 % of control

COc1ccc(S(=O)(=O)N=N/C=C2\C=CC=CN2O)cc1OC
inactive: dose: 3.12 mg/kg/injection, vehicle: saline with Tween-80 92 % of control | dose: 6.25 mg/kg/injection, vehicle: saline with Tween-80 100 % of control | [13] 98 % of control | [14] 93 % of control | [15] 106 % of control

Cc1cn(C2CC(F)C(CO)O2)c(=O)[nH]c1=O (centres undefined)
inactive: [7] 106 % of control | [8] 103 % of control | [9] 106 % of control | [10] 100 % of control | [11] 121 % of control | [12] 122 % of control

CCOC(=O)N1Cc2cc3cc(Cl)ccc3nc2C1
inactive: dose: 7.5 mg/kg/injection, vehicle: saline with Tween-80 100 % of control | dose: 15.0 mg/kg/injection, vehicle: saline with Tween-80 98 % of control | dose: 30.0 mg/kg/injection, vehicle: saline with Tween-80 100 % of control | dose: 60.0 mg/kg/injection, vehicle: saline with Tween-80 100 % of control | dose: 120.0 mg/kg/injection, vehicle: saline with Tween-80 105 % of control

CC1CN1P1(N2CC2C)=NP(N2CC2C)(N2CC2C)=NP(N2CC2C)(N2CC2C)=N1 (centres undefined)
inactive: [1] 100 % of control | [2] 100 % of control | [3] 98 % of control | [4] 97 % of control | [5] 90 % of control
